From patent publication USRE47689E1, “Compounds for treating spinal muscular atrophy” (PTC Therapeutics, Inc., priority 2011, dated 2019)
Read-outs that look alike come from different tables or passages of the source.

Experiments:
[1] = system: Smn protein; test: Smn protein assay in cultured cells (SMN HTRF); assay type: cell-based, human; details: 48 hours; for maximum fold (Fold) increase of Smn protein: SMA patient fibroblast cells, 7-point concentration data, fold increase relative to vehicle control (SMN HTRF); for EC1.5x (concentration giving 1.5-fold Smn protein increase): SMA Type 1 patient fibroblast cells (GM03813), 7-point concentration curve, SMN HTRF, concentration producing 1.5 times Smn protein vs DMSO vehicle control, read-out: EC1.5x for Smn protein expression
Method in brief: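 Smn in SMA fibroblast lysates, measured by anti-SMN HTRF after 48 h compound exposure; EC1.5x from fold change over vehicle.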

[2] = system: SMN2 minigene (full length SMN2 minigene mRNA containing SMN2 exon 7); test: SMN2 minigene mRNA splicing RT-qPCR assay in cultured cells; assay type: cell-based, human; details: Homo sapiens, HEK293-H, read-out: EC1.5x for production of full length SMN2 mRNA
Method in brief: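 Lysates → one-step RT-qPCR, minigene-specific primers (0.4 μM final) + GAPDH multiplex, 40 cycles. FL/GAPDH vs DMSO; EC1.5x, star-binned.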

[3] = HEK293H cells stably transfected with SMN2-A minigene, 24 hours, 7-point concentration curve, 1.5-fold relative to vehicle-treated cells

Row | melting point | Structure (SMILES) | maximum fold (Fold) increase of Smn protein [1] | EC (1.5-fold) [2, 3] [µM] | EC (1.5-fold) ([2]; 24 h) [µM] | EC1.5x (concentration giving 1.5-fold Smn protein increase) [1] [nM]
1 | 275 °C (dec.) | Cc1nc(C)c2cc(-c3cc4ccc(N5CCNCC5)cc4oc3=O)sc2n1 [Cpd 705, 3-(2,4-dimethylthieno[2,3-d]pyrimidin-6-yl)-7-(piperazin-1-yl)-2H-chromen-2-one] | *** (fold increase between >1.35 and ≤1.5) | 0.1 to 0.3 |  | 
2 | 192 to 194 °C | C[C@H]1CN(c2ccc3cc(-c4cc5ccccc5o4)c(=O)oc3c2)CCN1 [Compound 603, 3-(1-benzofuran-2-yl)-7-[(3S)-3-methylpiperazin-1-yl]-2H-chromen-2-one] | * (maximum fold increase of ≤1.2) | 0.3 to 1 |  | 
3 | 175 to 178 °C | Cc1nccn2cc(-c3cc4ccc(N5CCN6CCC[C@H]6C5)cc4oc3=O)cc12 [Compound 642, 7-[(8aS)-hexahydropyrrolo[1,2-a]pyrazin-2(1H)-yl]-3-(1-methylpyrrolo[1,2-a]pyrazin-7-yl)-2H-chromen-2-one] | ** (fold increase between >1.2 and ≤1.35) | < 0.1 |  | 
4 | 180 to 183 °C | CSc1cccc(-c2cc3ccc(N4CCNCC4)cc3oc2=O)n1 [Cpd 445, 3-[6-(methylsulfanyl)pyridin-2-yl]-7-(piperazin-1-yl)-2H-chromen-2-one] | * (maximum fold increase of ≤1.2) | 3 to 30 |  | 
5 | 190 to 192 °C | O=c1oc2cc(N3CCNCC3)ccc2cc1-c1cccc(N2CCCC2)n1 [Cpd 386, 7-(piperazin-1-yl)-3-[6-(pyrrolidin-1-yl)pyridin-2-yl]-2H-chromen-2-one] | * (maximum fold increase of ≤1.2) | 3 to 30 |  | 
6 | 168 to 172 °C | Cc1cn2cc(-c3cc4ccc(CCCN5CCOCC5)cc4oc3=O)nc2c(C)n1 [Compound 884, 3-(6,8-dimethylimidazo[1,2-a]pyrazin-2-yl)-7-[3-(morpholin-4-yl)propyl]-2H-chromen-2-one] | ***** (fold increase >1.65) | < 0.1 |  | < 300
7 | 251 to 253 °C | Cc1nc(Cl)cn2cc(-c3cc4ccc(N5CCN(C)[C@@H](C)C5)cc4oc3=O)nc12 [Compound 727, 3-(6-chloro-8-methylimidazo[1,2-a]pyrazin-2-yl)-7-[(3S)-3,4-dimethylpiperazin-1-yl]-2H-chromen-2-one] | *** (fold increase between >1.35 and ≤1.5) | 0.1 to 0.3 |  | 1000 to 3000
8 | 125 to 128 °C | Cc1nccn2cc(-c3cc4ccc(N5CCCN(C)CC5)cc4oc3=O)cc12 [Compound 556, 7-(4-methyl-1,4-diazepan-1-yl)-3-(1-methylpyrrolo[1,2-a]pyrazin-7-yl)-2H-chromen-2-one] | *** (fold increase between >1.35 and ≤1.5) | 0.1 to 0.3 |  | 300 to 1000
9 | 236 to 243 °C | Cc1cn2cc(-c3cc4ccc(C5CCN(C6CC6)CC5)cc4oc3=O)nc2c(C)n1 [Compound 854, 7-(1-cyclopropylpiperidin-4-yl)-3-(6,8-dimethylimidazo[1,2-a]pyrazin-2-yl)-2H-chromen-2-one] | ***** (fold increase >1.65) | < 0.1 |  | < 300
10 | 196 to 215 °C | Cc1ccn2cc(-c3cc4ccc(N5CC6CCC5CN6)cc4oc3=O)nc2c1 (stereo not drawn) [Compound 597, 7-(2,5-diazabicyclo[2.2.2]oct-2-yl)-3-(7-methylimidazo[1,2-a]pyridin-2-yl)-2H-chromen-2-one] | **** (fold increase between >1.5 and ≤1.65) | < 0.1 |  | < 300
11 | 165 to 168 °C | CCN(CC)CCCc1ccc2cc(-c3cn4cc(C)nc(C)c4n3)c(=O)oc2c1 [Compound 969, 7-[3-(diethylamino)propyl]-3-(6,8-dimethylimidazo[1,2-a]pyrazin-2-yl)-2H-chromen-2-one] | **** (fold increase between >1.5 and ≤1.65) | < 0.1 |  | < 300

Second part, the compound before the results:

Row | Structure (SMILES) | melting point | maximum fold (Fold) increase of Smn protein [1] | EC (1.5-fold) [2, 3] [µM] | EC (1.5-fold) ([2]; 24 h) [µM] | EC1.5x (concentration giving 1.5-fold Smn protein increase) [1] [nM]
12 | Cc1c[nH]nc1-c1cc2ccc(N3CCNCC3)cc2oc1=O [Cpd 80, 3-(4-methyl-1H-pyrazol-3-yl)-7-(piperazin-1-yl)-2H-chromen-2-one] | 175 to 200 °C (dec.) | ** (fold increase between >1.2 and ≤1.35) |  | 3 to 30 | 
13 | Cl.O=c1oc2cc(N3CCNCC3)ccc2cc1-c1nc2c(Cl)cccc2o1 [Compound 70, 3-(4-chloro-1,3-benzoxazol-2-yl)-7-(piperazin-1-yl)-2H-chromen-2-one hydrochloride] | 278 to 282 °C | * (maximum fold increase of ≤1.2) | 0.3 to 1 |  | 
14 | CN1CCN(c2cc(F)c3cc(-c4cn5ccccc5n4)c(=O)oc3c2)CC1 [Compound 422, 5-fluoro-3-(imidazo[1,2-a]pyridin-2-yl)-7-(4-methylpiperazin-1-yl)-2H-chromen-2-one] | 263 to 269 °C | ** (fold increase between >1.2 and ≤1.35) | 0.3 to 1 |  | 
15 | O=c1oc2cc(N3CCN(CCO)CC3)ccc2cc1-c1cn2cc(Cl)cnc2n1 [Compound 347, 3-(6-chloroimidazo[1,2-a]pyrimidin-2-yl)-7-[4-(2-hydroxyethyl)piperazin-1-yl]-2H-chromen-2-one] | 288 to 296 °C | * (maximum fold increase of ≤1.2) | 3 to 30 |  | 
16 | O=c1oc2cc(N3CCN4CCC[C@H]4C3)ccc2cc1-c1cn2cccc(F)c2n1 [Compound 528, 3-(8-fluoroimidazo[1,2-a]pyridin-2-yl)-7-[(8aS)-hexahydropyrrolo[1,2-a]pyrazin-2(1H)-yl]-2H-chromen-2-one] | 235 to 238 °C | ** (fold increase between >1.2 and ≤1.35) | 1 to 3 |  | 
17 | C[C@@H]1CN(c2ccc3cc(-c4nc5ccccc5s4)c(=O)oc3c2)C[C@H](C)N1 [Compound 24, 3-(1,3-benzothiazol-2-yl)-7-[(3R,5S)-3,5-dimethylpiperazin-1-yl]-2H-chromen-2-one] | 248 to 252 °C | * (maximum fold increase of ≤1.2) | 1 to 3 |  | 
18 | Cc1cc(Cl)cn2cc(-c3cc4ccc(N5CCNCC5)cc4oc3=O)nc12 [Compound 263, 3-(6-chloro-8-methylimidazo[1,2-a]pyridin-2-yl)-7-(piperazin-1-yl)-2H-chromen-2-one] | 224 to 233 °C | * (maximum fold increase of ≤1.2) | 3 to 30 |  | 
19 | C[C@@H]1CN(c2ccc3cc(-c4cc5ccccc5s4)c(=O)oc3c2)C[C@H](C)N1 [Compound 408, 3-(1-benzothiophen-2-yl)-7-[(3R,5S)-3,5-dimethylpiperazin-1-yl]-2H-chromen-2-one] | 271 to 273 °C | * (maximum fold increase of ≤1.2) | 0.3 to 1 |  | 
